Data as given in US10877036B2, “Biosensor based on Gβγ-interacting proteins to monitor G-protein activation” (priority 2014, dated 2020).
Like-named read-outs stand apart in the source and are kept apart here.

Key:
Type in all cases: cell-based
[1] = molecular target: T1, TPαR (Homo sapiens, UniProt P21731); experiment: Rluc protein complementation assay (GRK2-Rluc F1/Rluc F2-Gγ5/Gβ1/Gα11), TPαR in HEK293 cells; details: Rluc-PCA, FIG. 9B, read-out: EC50 of G11 protein activation (luminescence)
T1 construct: host or cells: HEK293
T1 sequence (P21731 1-343): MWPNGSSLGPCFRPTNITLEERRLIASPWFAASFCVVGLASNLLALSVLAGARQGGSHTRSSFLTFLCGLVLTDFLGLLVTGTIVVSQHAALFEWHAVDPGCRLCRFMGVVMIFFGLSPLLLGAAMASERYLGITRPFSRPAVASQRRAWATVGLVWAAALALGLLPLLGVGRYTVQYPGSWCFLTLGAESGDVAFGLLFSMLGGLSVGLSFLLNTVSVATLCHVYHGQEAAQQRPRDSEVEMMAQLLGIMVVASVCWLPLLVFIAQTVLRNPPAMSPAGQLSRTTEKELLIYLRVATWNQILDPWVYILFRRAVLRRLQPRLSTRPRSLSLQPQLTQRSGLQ
Method: Cell culture and transfections. Human embryonic kidney 293 (HEK293) cells were maintained in Dulbecco's Modified Eagle's Medium (DMEM) supplemented with 10% fetal bovine serum, 100 unit/ml penicillin/streptomycin at 37° C. in a humidified atmosphere with 5% CO2. Two days before the experiments, HEK293 cells were transfected with the indicated plasmids using poly-ethylenimine 25-kDa linear (PEI) as a transfecting agent (at a ratio of 3 to 1, PEI/DNA) (Hamdan, Rochdi et al. 2007), and then directly seeded in 96-well plates pre-treated with poly-L-ornithine hydrobromide or Poly-D-Lysine, at a density of 35,000 cells per well (for BRET and PCA assays in living cells), or 6-well plates at a density of 1,000,000 cells per well (for BRET assays on membrane preparations).
Protein complementation assays using RlucII fragments. Cells were washed twice with PBS, followed by Tyrode buffer addition. The cells were then pre-treated with the Rluc substrate, coelenterazine 400a, at a final concentration of 2.5 μM for 30 min at 37° C. The different ligands or vehicle were added for an additional 10 min. Luminescence values were then collected using a Mithras™ LB940 Multimode Microplate Reader, without any filters.

[2] = molecular target: T2, thromboxane A2 receptor (TPαR) (Homo sapiens, UniProt P21731); experiment: βγIP-based BRET biosensor (GRK2-GFP/Rluc-Gγ5/Gβ1 plus indicated Gα), agonist activation of TPαR in HEK293 cells; details: read-out: potency of G-protein activation (dose-response curve)
T2 construct: host or cells: HEK293
T2 sequence (P21731 1-343): T1 sequence (P21731 1-343)
Method: Cell culture and transfections. Human embryonic kidney 293 (HEK293) cells were maintained in Dulbecco's Modified Eagle's Medium (DMEM) supplemented with 10% fetal bovine serum, 100 unit/ml penicillin/streptomycin at 37° C. in a humidified atmosphere with 5% CO2. […]
BRET assays in living cells. […] BRET values were then collected using a Mithras™ LB940 Multimode Microplate Reader or a TRISTAR® LB942 Multimode Microplate Reader, equipped with the following filters: 400 nm±70 nm (energy donor) and 515 nm±20 nm (energy acceptor). BRET values were determined by calculating the ratio of the light emitted by GFP (515 nm) over the light emitted by the Rluc (400 nm). To determine the % of activation (Stim as % of basal), BRET values obtained for the agonist treated cells where expressed as a percentage of the BRET values obtained with the corresponding cells treated with vehicle.
Kinetics experiments. BRET assays were performed as described previously, except that BRET readings were collected at regular intervals, 5 min after coelenterazine addition, while ligands and vehicle were injected to the cells after 30 sec of BRET measurements.

[3] = molecular target: T1, TPαR; experiment: Polycistronic vector biosensor (GRK2-GFP, Rluc-Gγ5, Gβ1) co-transfected with TPαR and Gα11; details: FIG. 11C
Source text: Expression vectors: Biosensor constructs. Rluc-Gγ5 and GFP-Gγ: Plasmid encoding the fusion proteins Rluc-Gy1 to Gγ13 and GFP1O-Gγ5 were was obtained by PCR amplification of the Gγ coding sequences which were then fused in frame at its N-terminus to the humanized Renilla luciferase II (hRlucII) sequence (a variant of the hRluc previously reported (Leduc, Breton et al. 2009), SEQ ID NO:39) into pcDNA3.1 vector (linker sequence: GSAGT, SEQ ID NO: 33), or to the GFP10 (a variant form of the green fluorescent protein (GFP) previously reported (Mercier, Salahpour et al. 2002, SEQ ID NO:38). GRK2-GFP and GRK3-GFP: GRK2-GFP, GRK3-GFP, GRK2 Cterm (SEQ ID NO:50)-GFP, GRK3 Cterm (SEQ ID NO:51)-GFP were generated by PCR amplification of GRK2 and GRK3, which were then fused at their C-terminus to the GFP10 into pcDNA3.1 Zeo(+) vector, generating a linker of 11 amino acid residues between the GRK and the GFP10 protein (linker sequence: GSAGTGKLPAT, SEQ ID NO: 34). GFP-GRK2 and GFP-GRK3: […], GFP-GRK2 Cterm (SEQ ID NO:50), GFP-GRK3 Cterm (SEQ ID NO:51) were generated by PCR amplification of GRK2 and GRK3, which were then fused at their N-terminus to the GFP10 (SEQ ID NO:38) into pcDNA3.1 Zeo (+) vector, generating a linker of 7 amino acid residues between the GRK and the GFP10 protein (linker sequence: GSAGTGG, SEQ ID NO:52). […]

CCCCC[C@H](O)/C=C/[C@@H]1[C@@H](C/C=C\CCCC(=O)O)[C@H]2CO[C@@H]1C2 [U-46619]
EC50 [1]: 8.4 nM
EC50 ([2]; G-protein printed as Gβ, FIG. 3C): 0.5 nM
EC50 ([2]; Gα15/16, FIG. 3C): 6.6 nM
EC50 [3]: 4.3 nM
